System: EoL-1 (human eosinophilic leukaemia cell line) cells
Assay: TNF-α-induced cytokine release, non-differentiated EoL-1 cells (NO PMA) (Luminex)
Format: cell-based
Parameters: key to Fractalkine (NO PMA), p of decrement / IL-1α (NO PMA), p of decrement / IL-1β (NO PMA), p of decrement / IL-1ra (NO PMA), p of decrement / IL-5 (NO PMA), p of decrement / IL-7 (NO PMA), p of decrement / IL-8 (NO PMA), p of decrement / IP-10 (NO PMA), p of decrement / MCP-1 (NO PMA), p of decrement / MIP-1β (NO PMA), p of decrement / VEGF (NO PMA), p of decrement: ns = non significant
Details: 24 h
Protocol: EoL-1 (human eosinophilic leukaemia cell line) cells (Saito et al., 1985; Mayumi, 1992) were maintained in RPMI-1640 medium with L-glutamine supplemented with 10% (v/v) FBS at 37° C. in a humidified atmosphere with 5% CO2. Where indicated, 24 h before the experiment 25 ng/mL PMA ((phorbol 12-myristate 13-acetate, purchased from Sigma Aldrich) was added to the medium to induce eosinophil granulation and differentiation (Ohtsu et al., 1993; Zimmermann et al., 2000).
Half-million cells were aliquoted per point in a 24 well plate; each experiment was performed in triplicate and carried out in parallel with eosinophils differentiated and non differentiated with PMA (25 ng/mL, 24 h). Cells were suspended in low serum medium (RPMI-1640, 0.1% (v/v) FBS). TNF-α was used to induce cytokine secretion as previously described by Steube et al. (2000), and the net release was obtained by comparison to the basal (non-TNF-α treated). In the first experiment we evaluated the concentration and time relation between TNF-α stimulation and cytokine release. Therefore, 5, 10, and 25 ng/mL of TNF-α was administered to the cells at 0, ½, 1, 2, 3, 6, 12 and 24 h (data not shown). An aliquot of 150 μL of supernate was collected for cytokines' analysis. […] Differentiated and non-differentiated EoL-1 cells were exposed from 0.1 to 2.3 mM levocabastine ([…]Levocabastine 0.05% solution eye drops containing cyclodextrins, without benzalkonium chloride), and aliquots of the supernates were collected after 12 and 24 h. The content of cytokines at time zero was estimated by treating the cells with 400 nM calcimycin (A-23187), which is a cytolytic agent that frees all the mediators from the cytoplasmic compartment. In addition, for each experiment we tested the effect of the vehicle, which was added to the wells in a concentration equal to the maximum amount used for drug dilution.
Samples (supernates 12 and 24 h) in triplicate were analyzed using Luminex 200™ (Luminex, Austin, Tex.) and Beadview software v1.0 (Upstate Cell Signaling Solutions, Temecula, Calif.).
All data are presented as mean±SEM for the indicated number of experiments. Statistical significance was determined by Newman-Keuls test after ANOVA using GraphPad Prism (version 3.0; GraphPad Software Inc., San Diego, Calif., USA). P-values<0.05 were considered to be significant.

[1] = TNF-α 5 ng + Levocabastine 2 mM vs TNF-α
[2] = TNF-α 10 ng + Levocabastine 2 mM vs TNF-α
[3] = TNF-α 20 ng + Levocabastine 2 mM vs TNF-α
[4] = TNF-α 5, 10, 20 ng + Levocabastine 2 mM vs TNF-α

## C[C@@H]1CN([C@H]2CC[C@](C#N)(c3ccc(F)cc3)CC2)CC[C@]1(C(=O)O)c1ccccc1 [Levocabastine, levocabastine]
Levocabastine 2 mM vs TNF-α
  IL-8 (NO PMA), p of decrement: ns
  IL-10 (NO PMA), p of decrement: ns
  IL-12p40 (NO PMA), p of decrement: P < 0.01
  IP-10 (NO PMA), p of decrement: ns
  MCP-1 (NO PMA), p of decrement: Increase
  MIP-1α (NO PMA), p of decrement: Increase
  MIP-1β (NO PMA), p of decrement: ns
  RANTES (NO PMA), p of decrement: Increase
  TGF-α (NO PMA), p of decrement: ns
  VEGF (NO PMA), p of decrement: P < 0.001
[1]
  GM-CSF (NO PMA), p of decrement: ns
  IL-1ra (NO PMA), p of decrement: P < 0.01
  IL-1β (NO PMA), p of decrement: ns
  IL-5 (NO PMA), p of decrement: ns
  IL-6 (NO PMA), p of decrement: ns
  IL-7 (NO PMA), p of decrement: ns
  IL-8 (NO PMA), p of decrement: ns
  IL-10 (NO PMA), p of decrement: ns
  IL-12p40 (NO PMA), p of decrement: P < 0.001
  MCP-1 (NO PMA), p of decrement: ns
  TGF-α (NO PMA), p of decrement: P < 0.05
  VEGF (NO PMA), p of decrement: P < 0.001
[2]
  GM-CSF (NO PMA), p of decrement: ns
  IL-1ra (NO PMA), p of decrement: P < 0.05
  IL-1β (NO PMA), p of decrement: ns
  IL-5 (NO PMA), p of decrement: ns
  IL-6 (NO PMA), p of decrement: ns
  IL-7 (NO PMA), p of decrement: ns
  IL-8 (NO PMA), p of decrement: ns
  IL-10 (NO PMA), p of decrement: ns
  IL-12p40 (NO PMA), p of decrement: P < 0.001
  MCP-1 (NO PMA), p of decrement: ns
  TGF-α (NO PMA), p of decrement: ns
  VEGF (NO PMA), p of decrement: P < 0.001
[3]
  GM-CSF (NO PMA), p of decrement: ns
  IL-1ra (NO PMA), p of decrement: P < 0.01
  IL-1β (NO PMA), p of decrement: ns
  IL-5 (NO PMA), p of decrement: ns
  IL-6 (NO PMA), p of decrement: ns
  IL-7 (NO PMA), p of decrement: ns
  IL-8 (NO PMA), p of decrement: ns
  IL-10 (NO PMA), p of decrement: ns
  IL-12p40 (NO PMA), p of decrement: P < 0.001
  MCP-1 (NO PMA), p of decrement: ns
  TGF-α (NO PMA), p of decrement: P < 0.05
  VEGF (NO PMA), p of decrement: P < 0.001
[4]
  Fractalkine (NO PMA), p of decrement: increase of cytokine secretion
  G-CSF (NO PMA), p of decrement: increase of cytokine secretion
  IL-1α (NO PMA), p of decrement: increase of cytokine secretion
  IP-10 (NO PMA), p of decrement: increase of cytokine secretion
  MIP-1α (NO PMA), p of decrement: increase of cytokine secretion
  MP-1β (NO PMA), p of decrement: increase of cytokine secretion
  RANTES (NO PMA), p of decrement: increase of cytokine secretion
TNF-α vs Lev 0.1 mM
  Fractalkine (NO PMA), p of decrement: ns
  IL-1ra (NO PMA), p of decrement: ns
  IL-1α (NO PMA), p of decrement: ns
  IL-1β (NO PMA), p of decrement: ns
  IL-5 (NO PMA), p of decrement: ns
  IL-7 (NO PMA), p of decrement: ns
  IL-8 (NO PMA), p of decrement: ns

— patent publication US20130289070A1, “Use of Levocabastine for Modulating Generation of Pro-Inflammatory Cytokines” (Bausch & Lomb Incorporated, priority 2007, published 2013)
